Laboratory results taken from patent US20020040062A1, “Protein kinase C activators and their use in decreasing expression of cell antigens” (The Trustees of Columbia University, priority 1993, published 2002).
Marks after values point to notes of the source that are not given here.

B1: IFN-β: recombinant human fibroblast interferon with a serine substituted for a cysteine at position 17 (protein, UniProt P01574 22-187, looked up, variant C17S)
Interferon beta: MSYNLLGFLQRSSNFQSQKLLWQLNGRLEYCLKDRMNFDIPEEIKQLQQFQKEDAALTIYEMLQNIFAIFRQDSSSTGWNETIVENLLANVYHQINHLKTVLEEKLEKEDFTRGKLMSSLHLKRYYGRILHYLKAKEYSHCAWTIVRVEILRNFYFINRLTGYLRN

Legend:
Assay type in all cases: cell-based, human
[1] = test system: HLA Class II antigens; test: FACS analysis of HLA Class II antigen surface expression in T47D cells; settings: for HLA Class II level of upregulation versus untreated control cells (equivalent to 1.0): presence or absence of 0.1 μg/ml H-7; for HLA Class II relative increase in expression versus untreated controls (equivalent to 1.0): presence or absence of 1.0 μg/ml H-7
Text: (§1) IgG1 murine monoclonal antibody Cu18 and Cu46 recognize two different epitopes of a highly restricted breast carcinoma associated glycoprotein of Mr 225,000 to 250,000 (BCA 225). This TAA is expressed intracytoplasmically and on the membrane of 94% of breast tumors tested and in the T47D human breast carcinoma cell line. BCA 225 is shed into the culture medium by T47D cells and into the sera of breast cancer patients. IgG2a monoclonal antibody L243 (anti HLA Class II-DR) recognizes a monomorphic HLA Class II-DR-α epitope (ATCC M355). Monoclonal antibody CL203.4 [40], which recognizes ICAM-I, was kindly provided by Dr. S. Ferrone, New York Medical College, NY. The c-erbB-2 monoclonal antibody which recognizes the extracellular domain of c-erbB-2 was obtained from Triton Biosciences, Inc., Alamedia, Calif. Monoclonal antibodies Cu18 and Cu46 were used at 0.05 μg/ml and monoclonal antibodies interacting with HLA Class II-DR, ICAM-1 and c-erbB-2 were used at 10 μg/ml.
(§2) T47D cells treated with the various compounds were analyzed by flow cytometry using appropriate monoclonal antibody concentrations as described previously. Briefly, 1×10^5 cells were incubated with the test antibody for 30 min at 4° C., washed 3× with PBS and incubated with a goat a mouse F (ab)2 FITC conjugated test antibody at a 1:40 dilution for 30 min at 4° C. Cells were then washed 3× with PBS and analyzed on a FACStar (Beckon Dickinson, Mountain View, Calif.) or a Coulter Epics IV FACS (Coulter, Hialeah, Fla.). Results are expressed as mean fluorescence intensity (MFI) units which were determined as described previously. MFI=(mean channel fluorescence in fluorescence positive antibody-binding cells×% of fluorescence positive antibody-binding cells)−(mean channel fluorescence in unstained cells×% of fluorescence positive cells in the unstained population). All studies were performed a minimum of three or four times with duplicate samples in each experiment.

[2] = test system: BCA 225; test: BCA 225 synthesis, double-determinant ELISA of T47D cell lysates; settings: T47D cells, 72 hr
Protocol: (§3) After appropriate incubation times with the various compounds cell lysates were prepared from T47D cells. Cells were washed 3× in PBS, pH 7.6, pelleted and incubated for 1 hr at room temperature in 20 mM Tris HCl, pH 7.4, with PMSF. Cultures were then homogenized with a Teflon homogenizer, centrifuged at 3000 RPM for 10 min at 4° C. and the supernatant was mixed 1:2 with 20 mM Tris-HCl, pH 7.4, containing 0.5% NP40 (Sigma). After 1 hr at 4° C., the mixture was spun at 3000 RPM for 10 min and the supernatant was passed through an EXTRACTIGEL column (Pierce, Ill.) to remove excess detergent. Protein concentration was determined by the BCA micro-method (Pierce, Ill.). BCA 225 levels in cell extracts and supernatants from control and treated T47D cells were quantitated using a double-determinant ELISA assay. Briefly, Cu18 monoclonal antibody coated Nunc Immunoplates (Nunc, Denmark) were blocked with 1% BSA (Sigma, RIA Reagent Grade) and incubated with a 1:2 dilution of supernatant in duplicate. Standard values for a partially purified BCA 225 preparation were used at a range of 0 to 10 μg/ml in RPMI 1640 plus 10% FBS (T47D growth medium). After 2 hr incubation and three washings with PBS 0.1% Tween 20 a Cu46 monoclonal antibody conjugated to peroxidase was applied to the plate, incubated for 2 hr, washed 6× in PBS 0.1% Tween 20 and the reaction was developed with […] OPD (Sigma, St. Louis) and 4 μl of 30% H2O2 in McIlvans buffer, pH […]. The plates were read on a Dynatech Elisa reader and a linear standard curve was generated and used to calculate the relative amount of BCA 225 in cell lysates and shed into the culture medium. Results were adjusted to ng BCA 225 per mg of protein, or per 1×10^6 cells. Replicate samples varied by ≦10% and replicate experiments varied by ≦20%.

[3] = test system: BCA 225; test: BCA 225 shedding into culture medium, double-determinant ELISA; settings: T47D cells; for BCA 225 Shedding / BCA 225 Shedding, level of enhancement relative to control (equivalent to 1.0) / BCA 225 Shedding, relative change in comparison with controls (equivalent to 1.0): 72 hr; for ability to induce shedding of BCA 225: Table 2
Protocol: as §3

[4] = test system: BCA 225; test: FACS analysis of BCA 225 surface expression in T47D cells; settings: 72 hr; for BCA 225 Expression, level of enhancement relative to control (equivalent to 1.0): presence or absence of 0.1 μg/ml H-7
Text: as §1, with “μg/ml. For each experiment, isotype matched control backgrounds (IgG for Cu18, Cu46 and ICAM-1, IgG2a for HLA Class Ii and IgG2b for c-erbB-2) were subtracted from the experimental results. Background from antimouse IgG FITC antibody was also subtracted from experimental results. Applicants never observed backgrounds higher than 2% of total cells for isotypic mouse IgG or higher than 5% for antimouse IgG FITC.” for “μg/ml.”
as §2, with “experiment. Replicate samples within individual experiments varied by ≦10% and variation between experiments were generally ≦20%.” for “experiment.”

[5] = 0.1 μg/ml TPA, 0.1 μg/ml MEZ or 0.25 μg/ml ADMB, presence or absence of 0.1 μg/ml H-7
[6] = 0.1 μg/ml TPA, 0.1 μg/ml MEZ or 0.25 μg/ml ADMB
[7] = 0.1 μg/ml TPA, 0.1 μg/ml MEZ or 0.25 μg/ml ADMB, presence or absence of 0.1 μg/ml H-7, CU18 antibody
[8] = 72 hr, 0.1 μg/ml TPA or MEZ, presence or absence of 0.1 μg/ml H-7, FACStar
[9] = 72 hr, 500 units/ml IFN-β or 50 units/ml IFN-γ
[10] = 72 hr, 500 units/ml IFN-β or 50 units/ml IFN-γ, presence or absence of 1.0 μg/ml H-7, Coulter Epics IV FACS
[11] = 500 units/ml IFN-β or 50 units/ml IFN-γ, presence or absence of 1.0 μg/ml H-7

Row | Molecule | efficacy of upregulation of HLA Class II antigens (fold-change in MFI, FIG. 2) ([1]; 72 hr, 0.1 μg/ml of ADMB, TPA or MEZ) | BCA 225 Synthesis [2, 5] [ng/mg protein] | BCA 225 Synthesis, level of enhancement relative to control (equivalent to 1.0) [2, 5] | BCA 225 Shedding [3, 5] [ng/ml/10^6 cells] | BCA 225 Shedding, level of enhancement relative to control (equivalent to 1.0) [3, 5] | ability to induce shedding of BCA 225 [3] | BCA 225 Expression, level of enhancement relative to control (equivalent to 1.0) [4, 6] | BCA 225 Expression [4, 7] | HLA Class II level of upregulation versus untreated control cells (equivalent to 1.0) ([1]; 72 hr, 0.1 μg/ml TPA or MEZ) | Antigenic Expression (MFI) HLA Class II [1, 8] | HLA Class II relative increase in expression versus untreated controls (equivalent to 1.0) [1, 9] | Antigenic Expression (MFI) HLA Class II [1, 10] | BCA 225 Synthesis [2, 11] [ng/mg protein] | BCA 225 Synthesis, relative change in comparison with controls (equivalent to 1.0) [2, 11] | BCA 225 Shedding [3, 11] [ng/ml/10^6 cells] | BCA 225 Shedding, relative change in comparison with controls (equivalent to 1.0) [3, 11] | BCA 225 Expression [4, 11] | BCA 225 Expression, relative change in comparison with controls (equivalent to 1.0) [4, 11] | fold increase in HLA Class II expression ([1]; 500 units/ml IFN-α, IFN-β or IFN-γ as in Table 3) [fold]
1 | CCCCCCCCCCN(C)c1cc(CO)cc(NC(C)=O)c1 [ADMB, 3-(N-acetylamino)-5-(N-decyl-N-methylamino)-benzyl alcohol] | somewhat more effective than TPA and MEZ | 299 | 1.8 | 26 | 0.9 | did not induce this effect | 2.0 | 12,825 MFI | – | – | – | – | – | – | – | – | – | – | –
2 | CC1CNCCN1S(=O)(=O)c1cccc2cnccc12.Cl.Cl (stereo not drawn) [H-7, 1-(5-isoquinolinesulfonyl)-2-methylpiperazine dihydrochloride] | – | 142 | 0.9 | 23 | 0.8 | – | 0.8 | 5,428 MFI | (1.3)^b | 4,563 MFI | 1.2 | 3,490 MFI | 230 | 1.0 | 38 | 0.8 | 2,560 MFI | 0.9 | –
3 | C=C(C)[C@@]12O[C@@]3(c4ccccc4)O[C@@H]1[C@@H]1[C@@H]4O[C@]4(CO)[C@@H](O)[C@]4(O)C(=O)C(C)=C[C@H]4[C@@]1(O3)[C@H](C)[C@H]2OC(=O)/C=C/C=C/c1ccccc1 [MEZ, mezerein] | – | 507 | 3.1 | 147 | 5.3 | enhance shedding of BCA 225 | 2.5 | 16,065 MFI | (3.0) | 10,260 MFI | – | – | – | – | – | – | – | – | –
4 | CCCCCCCCCCCCCC(=O)O[C@@H]1[C@@H](C)[C@@]2(O)[C@@H](C=C(CO)C[C@]3(O)C(=O)C(C)=C[C@@H]23)[C@H]2C(C)(C)[C@]12OC(C)=O [TPA, 12-0-tetradecanoyl-phorbol-13-acetate] | – | 394 | 2.4 | 84 | 3.0 | enhance shedding of BCA 225 | 1.8 | 11,696 MFI | (2.9) | 9,984 MFI | – | – | – | – | – | – | – | – | –
5 | B1 | – | – | – | – | – | – | – | – | – | – | 10.8 | 31,413 MFI | 374 | 1.7 | 69 | 1.5 | 5,716 MFI | 2.0 | 11
